Experiments:
MZ-CRC-1 cell line [1] = test: serum calcitonin in nude mice with MZ-CRC-1 tumor after ^11C-acetate; assay type: in vivo, mouse; settings: nude mice (BALB/c) with tumor from MZ-CRC-1 cell line (FIG. 11B)
Experimental: (§1) Nude mice (BALB/c) were administered with the MZ-CRC-1 cell line (4×10^6 cells/mouse) to induce tumorigenesis, and administered with ^11C-acetate, followed by performing positron emission tomography (PET).

OR51E2 [2] = test: CPM after ^11C-acetate treatment of OR51E2 knockout mice; assay type: in vivo, mouse; settings: OR51E2 knockout mice compared with wild-type mice (FIG. 8D)
MZ-CRC-1 cell line [3] = test: positron emission tomography (PET) of nude mice with MZ-CRC-1 tumor; assay type: in vivo, mouse; settings: nude mice (BALB/c) with tumor from MZ-CRC-1 cell line (FIG. 11A)
Experimental: as §1

OR51E2 [4] = target: T1, OR51E2 (Homo sapiens, UniProt Q9H255); test: acetate binding competition experiment (CPM); set-up: OR51E1 (olfactory receptor 51E1) and OR51E2 were highly expressed in MZ-CRC1 and TT cell lines as medullary thyroid cancer cell lines; endogenous in cells; host or cells: MZ-CRC-1 and TT medullary thyroid cancer cell lines; settings: MZ-CRC-1 and TT cell lines
T1 sequence (Q9H255 1-320): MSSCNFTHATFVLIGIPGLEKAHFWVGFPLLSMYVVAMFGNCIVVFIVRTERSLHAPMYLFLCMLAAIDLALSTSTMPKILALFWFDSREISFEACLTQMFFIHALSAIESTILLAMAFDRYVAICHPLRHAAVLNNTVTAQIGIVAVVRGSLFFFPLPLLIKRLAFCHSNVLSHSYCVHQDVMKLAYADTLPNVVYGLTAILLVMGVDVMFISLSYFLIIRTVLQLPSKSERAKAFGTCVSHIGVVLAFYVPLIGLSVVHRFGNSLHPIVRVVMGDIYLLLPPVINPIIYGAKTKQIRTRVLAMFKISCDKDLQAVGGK
Experimental: MZ-CRC-1 and TT cell lines as medullary thyroid cancer cell lines were treated with 100 μM cold acetate (acetate labeled with no radioactive isotope), and then treated with ^11C-acetate at concentrations of 2, 5, 10, 20, 40 and 60 μCi to measure CPM. In addition, MZ-CRC-1 and TT cell lines were treated with ^11C-acetate (20 μCi), and then treated with cold acetate at concentrations of 0, 20, 40, 80, 150 and 300 μM to measure CPM.

OR51E2 [5] = target: T1, OR51E2; test: ^11C-acetate positron emission and CPM in thyroid cancer cell lines; assay type: cell-based; set-up: OR51E1 (olfactory receptor 51E1) and OR51E2 were highly expressed in MZ-CRC1 and TT cell lines as medullary thyroid cancer cell lines; endogenous in cells; host or cells: MZ-CRC-1 and TT medullary thyroid cancer cell lines
Experimental: Thyroid cancer cell lines having different origins were treated with ^11C-acetate labeled with a radioactive isotope (20 μCi), and the degree of positron emission was identified. A control group was treated with F-18-fluorodeoxyglucose as the most commonly used radiopharmaceutical.

[6] = test system: CREB (cAMP response element-binding protein); settings: parafollicular C-cell line, acetate concentration series (FIG. 4B)
Experimental: (§2) Since OR51E1 and OR51E2 were highly expressed in the medullary thyroid cancer cell lines, MZ-CRC1 and TT cell lines as parafollicular C-cell lines were treated with acetate, nonanoic acid, propionate and azelaic acid as olfactory receptor ligands by 100 μM each to identify their influences.

p42/44 MAPK = test system: p42/44 MAPK
Experimental: as §2

intracellular cAMP = settings: parafollicular C-cell line, acetate treatment (FIG. 4C)
Experimental: as §2

OR51E2 [7] = settings: OR51E2 knockout mice, 30 minutes after injecting 100 μl of 99% acetate (FIG. 7B)
Experimental: (§3) C57/BL6 mice in which a green fluorescent protein (GFP) was inserted into the OR51E2 gene loci were purchased (Jackson Laboratory, USA) and reared under sterile conditions. Through a week of acclimatization, the mice were each sacrificed 30 minutes after injecting 100 μl of 99% acetate thereto to separate the thyroid gland and serum. The thyroid gland was stained with calcitonin and a GFP antibody, respectively, and the calcitonin concentration was measured in the separated serum.

OR51E2 [8] = target: OR51E2 (Mus musculus, UniProt Q8VBV9); settings: wild-type mice, 30 minutes after injecting 100 μl of 99% acetate (FIG. 7B)
Chain of OR51E2 (Mus musculus, UniProt Q8VBV9) (Q8VBV9 whole entry): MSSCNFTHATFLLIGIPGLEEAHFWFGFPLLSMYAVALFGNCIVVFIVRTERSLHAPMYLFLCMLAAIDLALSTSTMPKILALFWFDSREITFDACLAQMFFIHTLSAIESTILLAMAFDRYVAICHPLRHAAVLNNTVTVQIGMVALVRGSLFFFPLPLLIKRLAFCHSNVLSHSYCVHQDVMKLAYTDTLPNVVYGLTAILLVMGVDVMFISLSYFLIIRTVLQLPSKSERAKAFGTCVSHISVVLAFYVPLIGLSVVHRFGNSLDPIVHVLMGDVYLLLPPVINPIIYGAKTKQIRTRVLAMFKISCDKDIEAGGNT
Experimental: as §3

OR51E2 [9] = target: T1, OR51E2; settings: MZ-CRC-1 cell line, 100 μM acetate, stained after 1, 5 and 30 minutes (FIG. 10)
Experimental: To identify whether the binding of acetate and OR51E2 can be utilized in the diagnosis of thyroid cancer, the MZ-CRC-1 cell line (parafollicular C-cells) was treated with 100 μM of acetate, and the cells were stained after 1, 5 and 30 minutes to identify OR51E2.

OR51E2 [10] = target: T1, OR51E2
Experimental: (§4) Thereafter, the parafollicular C-cells were treated with acetate at each concentration and cultured, and then using a bromodeoxyuridine (BrdU) cell proliferation assay kit (Millipore, Mass.), the degree of BrdU binding was analyzed according to the manufacturer's protocol.

parafollicular C-cells = parafollicular C-cells treated with acetate at each concentration (FIG. 5A)
Experimental: as §4

level of positron emission (OR51E2 [5]; medullary thyroid cancer cell line versus other thyroid cancer cell lines, 20 μCi (FIG. 8A))	CPM (counter per minute) (OR51E2 [5]; medullary thyroid cancer cell line versus other thyroid cancer cell lines, 20 μCi (FIG. 8B))	CPM (OR51E2 [5]; medullary thyroid cancer cell line with OR51E2 expression suppressed by siOR51E2 (FIG. 8C))	level of calcitonin in the serum (OR51E2 [8])	location of OR51E2 (staining) (OR51E2 [9])	release of calcitonin (OR51E2 [10]; expression of OR51E2 suppressed with siRNA, then acetate treatment (FIG. 5C))	intracellular expression level of calcitonin (OR51E2 [10]; parafollicular C-cell line, acetate treatment (FIG. 5B))	Structure (SMILES)	calcitonin concentration in the serum (MZ-CRC-1 cell line [1])	CPM (OR51E2 [2])	PET tracer accumulation (MZ-CRC-1 cell line [3])	CPM (OR51E2 [4]; first 100 μM cold acetate, then ^11C-acetate 2, 5, 10, 20, 40 and 60 μCi (FIG. 9A, 9B))	phosphorylation level of CREB versus concentration [6]	level of phosphorylation of p42/44 MAPK (p42/44 MAPK; MZ-CRC1 and TT cell lines, ligands 100 μM each (FIG. 4A))	phosphorylation level of p42/44 MAPK versus concentration (p42/44 MAPK; parafollicular C-cell line, acetate concentration series (FIG. 4B))	level of intracellular cAMP (intracellular cAMP)	level of calcitonin in the serum (OR51E2 [7])	cell proliferation (BrdU binding level) (parafollicular C-cells)	CPM (OR51E2 [4]; first ^11C-acetate 20 μCi, then cold acetate 0, 20, 40, 80, 150 and 300 μM (FIG. 9C, 9D))
high	highest	did not increase					C[11C](=O)O [^11C-acetate]	increased	did not increase	accumulated in the tumor-producing sites	increased as the treatment concentration increased							
			increased	migrated into the cells	not increased	increased	CC(=O)O [acetate]					increased in proportion to the acetate treatment concentration	increased	increased in proportion to the acetate treatment concentration	increased	maintained almost constant	increased	decreased as the treatment concentration increased
